From US4829076A, “Novel dihydropyridines having calcium antagonistic and antihypertensive activity” (Alkaloida Vegyeszeti Gyar, priority 1986, dated 1989)
Where two headings read alike, the source gives them in different places.

Key:
[1] = target: T1, 1,4-dihydropyridine receptor; assay: Receptor binding studies (displacement of 3H-nitrendipine, heart microsomal preparation); conditions: displacement of 50% of 3H-nitrendipine
T1 construct: to the heart microsomal preparation; from tissue; host or cells: heart microsomal preparation

[2] = target: T2, potential-mediated calcium channel (Rattus norvegicus, UniProt P22002); assay: Calcium-antagonistic effect on an isolated vessel preparation (portal vein); conditions: depolarizing solution (90 mM KCl), CaCl2 2.5 and 5.0 mM, 37° C., pH 7.4, read-out: Inhibition of the potential-mediated calcium channel, IC50
T2 construct: Portal veins were obtained from decapitated male rats; from tissue; host or cells: rat portal vein (longitudinally incised venous segment)
Experimental: Portal veins were obtained from decapitated male rats weighing 300 to 350 g. The longitudinally incised venous segment was suspended in an organ chamber (10 ml) filled with physiological saline solution under resting tension of 1 g. Its upper end was attached to a HSI force-displacement transducer. Isometric contractions were recorded with a Beckman Dynograph.
After the initial equilibration period in a calcium-free Krebs-Ringer bicarbonate solution (KRB) the vein was exposed to a depolarizing solution (calcium-free KRB containing 90 mM of KCl) for 10 minutes. In order to determine the cumulative contractile responses CaCl2 was added in an end-concentration of 2.5 and 5.0 mM, resp. Each medium was oxygenated with carbogen gas and maintained at 37° C. and pH 7.4.
The influence of the test compounds on the contraction was determined by incubating the veins in the depolarizing solution for 10 minutes before and during exposure to Ca^2+. Each vein preparation was subjected to a single concentration of the test compound.
For each experiment the 100% responses were considered as the maximum contractile responses during the control Ca curves. The contractions after exposure to the test compounds were expressed as the percentage of these values.

[3] = test system: spontaneously hypertensive conscious rats; assay: Antihypertensive effect in spontaneously hypertensive conscious rats ("SH" rats); assay type: in vivo, rat (Wistar-Okamoto); conditions: 2.5 mg/kg p.o.; for change in vivo at 2.5 mg/kg: Rattus norvegicus, po
Experimental: The blood pressure of rats was measured before treatment and hourly after drug administration till the 24th posttreatment hour. The test compounds were administered orally, by gavage.

[4] = test system: anesthetized, normotensive cats; assay: Hypotensive effect in anesthetized, normotensive cats; assay type: in vivo, cat; conditions: 1 mg/kg id.
Experimental: A tube was inserted in the trachea of cats anesthetized with ip.35 mg/kg of pentobarbital sodium to ensure spontaneous respiration. The femoral artery and vein were both cannulated unilaterally. The vegetative test compounds (adrenaline, isoproterenol) were administered through the venous cannule. The mean arterial blood pressure was measured by joining the arterial cannule to a Statham P23Db pressure transducer and electromanometer. The heart rate was determined by a cardiotachometer triggered by arterial pulse-wave.
Various doses of the test compounds were administered through a cannule inserted into the duodenum.

T2 sequence (P22002 whole entry): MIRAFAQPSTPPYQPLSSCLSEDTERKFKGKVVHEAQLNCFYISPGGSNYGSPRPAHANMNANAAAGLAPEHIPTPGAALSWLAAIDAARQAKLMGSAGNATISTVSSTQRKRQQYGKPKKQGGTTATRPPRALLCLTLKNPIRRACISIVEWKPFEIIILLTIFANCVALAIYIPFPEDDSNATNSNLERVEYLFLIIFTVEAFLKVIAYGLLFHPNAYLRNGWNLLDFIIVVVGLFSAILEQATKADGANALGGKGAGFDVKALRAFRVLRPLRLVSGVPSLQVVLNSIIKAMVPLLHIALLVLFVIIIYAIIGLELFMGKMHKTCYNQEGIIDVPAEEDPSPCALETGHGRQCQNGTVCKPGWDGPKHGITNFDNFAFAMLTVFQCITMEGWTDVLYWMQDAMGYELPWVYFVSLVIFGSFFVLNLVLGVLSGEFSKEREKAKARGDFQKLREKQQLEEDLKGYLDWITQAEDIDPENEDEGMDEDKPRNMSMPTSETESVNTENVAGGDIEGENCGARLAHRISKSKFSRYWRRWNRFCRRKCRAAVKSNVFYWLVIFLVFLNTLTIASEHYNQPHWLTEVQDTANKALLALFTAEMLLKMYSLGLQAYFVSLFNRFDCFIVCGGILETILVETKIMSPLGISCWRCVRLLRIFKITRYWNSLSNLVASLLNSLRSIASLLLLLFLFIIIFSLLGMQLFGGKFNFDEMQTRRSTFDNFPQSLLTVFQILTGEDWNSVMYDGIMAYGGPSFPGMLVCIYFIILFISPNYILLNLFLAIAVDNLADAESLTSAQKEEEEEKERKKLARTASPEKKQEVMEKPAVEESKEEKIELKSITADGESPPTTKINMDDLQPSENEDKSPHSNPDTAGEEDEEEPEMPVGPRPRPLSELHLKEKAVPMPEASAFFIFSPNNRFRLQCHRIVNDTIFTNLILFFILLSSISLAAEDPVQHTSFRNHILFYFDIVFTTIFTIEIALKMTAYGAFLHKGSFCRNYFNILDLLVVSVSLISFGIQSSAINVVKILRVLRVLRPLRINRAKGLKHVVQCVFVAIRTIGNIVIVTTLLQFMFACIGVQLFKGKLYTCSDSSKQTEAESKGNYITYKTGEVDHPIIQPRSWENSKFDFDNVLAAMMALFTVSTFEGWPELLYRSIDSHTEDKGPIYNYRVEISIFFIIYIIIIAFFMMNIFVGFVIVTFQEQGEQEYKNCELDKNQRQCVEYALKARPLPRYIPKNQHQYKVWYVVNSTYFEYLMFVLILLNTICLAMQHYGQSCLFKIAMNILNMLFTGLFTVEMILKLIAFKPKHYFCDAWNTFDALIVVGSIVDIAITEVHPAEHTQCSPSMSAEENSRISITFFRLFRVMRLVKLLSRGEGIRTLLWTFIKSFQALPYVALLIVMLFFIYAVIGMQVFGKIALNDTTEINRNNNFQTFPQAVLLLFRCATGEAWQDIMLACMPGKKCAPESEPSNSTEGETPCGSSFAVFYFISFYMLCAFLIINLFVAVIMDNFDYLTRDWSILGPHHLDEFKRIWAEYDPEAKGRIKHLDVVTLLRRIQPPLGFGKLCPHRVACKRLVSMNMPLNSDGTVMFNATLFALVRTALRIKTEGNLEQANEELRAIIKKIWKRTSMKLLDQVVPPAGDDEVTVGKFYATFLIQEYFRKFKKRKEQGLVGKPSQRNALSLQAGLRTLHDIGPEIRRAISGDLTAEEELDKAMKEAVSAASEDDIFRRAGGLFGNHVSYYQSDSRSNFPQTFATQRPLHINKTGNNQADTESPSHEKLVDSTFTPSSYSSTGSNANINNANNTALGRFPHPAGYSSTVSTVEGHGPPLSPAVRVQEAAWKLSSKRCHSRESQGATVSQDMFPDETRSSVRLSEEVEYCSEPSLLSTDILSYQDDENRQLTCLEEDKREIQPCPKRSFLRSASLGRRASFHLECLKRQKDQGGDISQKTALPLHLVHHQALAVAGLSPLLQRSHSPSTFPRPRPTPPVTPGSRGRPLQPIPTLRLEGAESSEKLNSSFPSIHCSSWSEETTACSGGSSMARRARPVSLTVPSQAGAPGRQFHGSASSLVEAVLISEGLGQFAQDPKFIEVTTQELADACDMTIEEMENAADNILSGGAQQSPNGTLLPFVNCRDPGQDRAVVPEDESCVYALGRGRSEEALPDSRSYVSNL
T2 sequence (P54290 25-943 partner limits assumed): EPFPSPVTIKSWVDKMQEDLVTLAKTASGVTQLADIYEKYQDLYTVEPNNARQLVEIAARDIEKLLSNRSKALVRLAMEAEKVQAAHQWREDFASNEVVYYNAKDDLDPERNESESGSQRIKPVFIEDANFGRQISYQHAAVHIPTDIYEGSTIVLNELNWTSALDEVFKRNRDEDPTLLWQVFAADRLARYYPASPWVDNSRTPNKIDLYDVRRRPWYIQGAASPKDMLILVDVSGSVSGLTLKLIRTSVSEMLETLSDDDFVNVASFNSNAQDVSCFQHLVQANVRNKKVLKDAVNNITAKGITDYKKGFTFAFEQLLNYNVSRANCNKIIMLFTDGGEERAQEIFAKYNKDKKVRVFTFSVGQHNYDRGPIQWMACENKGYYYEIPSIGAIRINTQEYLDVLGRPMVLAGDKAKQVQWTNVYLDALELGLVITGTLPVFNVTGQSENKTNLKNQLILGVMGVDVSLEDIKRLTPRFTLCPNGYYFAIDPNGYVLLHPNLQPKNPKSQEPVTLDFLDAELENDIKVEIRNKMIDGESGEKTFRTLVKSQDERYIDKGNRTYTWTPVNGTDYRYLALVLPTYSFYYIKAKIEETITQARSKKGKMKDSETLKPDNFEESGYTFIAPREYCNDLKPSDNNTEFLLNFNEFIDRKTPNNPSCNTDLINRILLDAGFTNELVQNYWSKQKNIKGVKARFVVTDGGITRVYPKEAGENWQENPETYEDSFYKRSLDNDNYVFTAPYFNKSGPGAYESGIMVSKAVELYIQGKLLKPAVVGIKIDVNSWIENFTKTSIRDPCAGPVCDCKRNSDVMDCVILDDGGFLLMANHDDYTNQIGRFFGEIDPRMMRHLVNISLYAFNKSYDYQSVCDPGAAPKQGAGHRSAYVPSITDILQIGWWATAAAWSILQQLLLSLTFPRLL
T2 sequence (P54290 944-1091 partner limits assumed): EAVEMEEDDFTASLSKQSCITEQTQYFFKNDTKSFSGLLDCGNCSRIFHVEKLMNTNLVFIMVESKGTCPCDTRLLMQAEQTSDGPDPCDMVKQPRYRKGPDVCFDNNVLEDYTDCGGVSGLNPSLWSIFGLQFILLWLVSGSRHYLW

SMILES: COC(=O)C1=C(C)NC(C)=C(C(=O)OC)C1c1ccccc1NC(=O)c1ccc(C)cc1 [Example 15]
- IC50 [1]: 15.5 ± 3.5 nM
- IC50 [2]: 3 nM
- Systolic blood pressure, 2 h ([3]; 2 h): 141.4 Hgmm
- Systolic blood pressure, 5 h ([3]; 5 h): 139.2 Hgmm
- Systolic blood pressure, 24 h ([3]; 24 h): 193.8 Hgmm
- change in vivo at 2.5 mg/kg ([3]; 2 h, read-out: Systolic blood pressure reduction in %, 2 h): -31%
- change in vivo at 2.5 mg/kg ([3]; 5 h, read-out: Systolic blood pressure reduction in %, 5 h): -32%
- change in vivo at 2.5 mg/kg ([3]; 24 h, read-out: Systolic blood pressure reduction in %, 24 h): -5%
- Mean arterial pressure, 5 min ([4]; 5 min): 90 Hgmm
- Mean arterial pressure, 15 min ([4]; 15 min): 65 Hgmm
- Mean arterial pressure, 30 min ([4]; 30 min): 65 Hgmm
- Mean arterial pressure, 60 min ([4]; 60 min): 73 Hgmm
- Mean arterial pressure, 120 min ([4]; 120 min): 90 Hgmm
